Tests used:
IRAK4 [1] = biological target: T1, IRAK4 (Homo sapiens, UniProt Q9NWZ3); test: OCI-LY-10 degradation assay (western blot, % IRAK4 degraded after 4 hours); type: cell-based; design: endogenous in cells; host or cells: OCI-LY10; details: OCI-LY10 cells, IRAK4 degraded after 4 hours, western blot
T1 sequence (Q9NWZ3 1-460): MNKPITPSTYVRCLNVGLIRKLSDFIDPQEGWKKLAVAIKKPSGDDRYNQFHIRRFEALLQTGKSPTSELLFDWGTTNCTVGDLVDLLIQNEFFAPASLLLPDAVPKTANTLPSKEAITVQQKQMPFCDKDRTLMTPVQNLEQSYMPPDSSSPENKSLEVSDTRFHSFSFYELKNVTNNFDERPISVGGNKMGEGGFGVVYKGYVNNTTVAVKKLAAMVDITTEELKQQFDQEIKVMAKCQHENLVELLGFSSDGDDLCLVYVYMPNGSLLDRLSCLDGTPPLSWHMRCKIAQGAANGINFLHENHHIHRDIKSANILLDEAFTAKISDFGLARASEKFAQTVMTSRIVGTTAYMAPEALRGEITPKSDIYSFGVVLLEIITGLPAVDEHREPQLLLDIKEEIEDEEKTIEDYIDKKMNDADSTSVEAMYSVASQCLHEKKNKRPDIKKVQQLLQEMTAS
Procedure, shortened: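 IRAK4 loss after 4 h at 37° C was scored A (>50%), B (>20-50%) or C (<20%) from infrared western blots of RIPA lysates, 20-25 μg protein per lane. Compound was applied at 0.003-10 μM final to OCI-LY10 cells cultured in RPMI-1640 with 20% FBS and 55 μM 2-ME.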

[2] = biological target: CRBN-DDB1 / GST-IRAK4 ternary complex (Homo sapiens, UniProt Q96SW2+Q9NWZ3); test: AlphaLISA assay to determine ternary complex formation; type: binding
Protocol: The assay mixture contains 100 nM CRBN-DDB1, 100 nM GST-IRAK4, 20 μg/mL Nickle Chelate Donor Bead (Perkin Elmer Catalog # AS101D) and 20 μg/mL GSH Acceptor Bead (Perkin Elmer Catalog # AL109C) in a buffer containing 50 mM HEPES, pH 7.5, 100 mM NaCl, 0.1% BSA, 2 mM TCEP, 0.05% Tween-20. […] AlphaLISA signals (Excitation 680 nm and emission 615 nm) were recorded on a Perkin Elmer EnVision 2104 Multilabel reader. The raw data was converted to the relative amount of ternary complex formation by normalization to the signal generated by His-tagged GST protein only. The final data points were plotted and the curves were fit using non-linear regression using GraphPad Prism software.

IRAK4 [3] = biological target: T1, IRAK4; test: PBMC degradation assay (western blot, % IRAK4 degraded after 4 hours); type: cell-based; details: human PBMCs
Protocol: Protocol summary of PBMC degradation studies from compound treatment through quantitation.
PBMC culture medium: Human peripheral blood mononuclear cells (PBMCs): RPMI+10% FBS (Heat-inactivated)+1% P/S.
Cells were cultured at a minimum of 2.5×10^6 c/mL. • PBMCs were incubated @ 37° C./5% CO2 and allowed to rest overnight. • Following overnight recovery, a cell count/viability assessment by trypan blue exclusion was performed. Cells densities were adjusted back to 2.5×10^6 c/mL (proceed with plating only if viability >80%). • In a 6 well plate, 2.0 mL of cells were added to each well for a minimum of 5×10^6 CT per treatment condition. Compounds dilutions were prepared from 20 mM stock and were added at a final 1000× dilution (0.1% DMSO concentration). • At the end of treatment, cells were harvested and spun @ 1800 rpm for 5 min. 1×PBS wash and spun again @ 1800 rpm for 5 min. Cell pellets were frozen and stored at −80° C. until further processing. • Lysates were generated by resuspending in lysis buffer. Protein quantification was performed with a BCA kit. • 20 μg of protein were loaded per lane and run on a 26-well 4-12% Bis-Tris SDS-page gel. • Transfers were performed on PVDF membranes using the BioRad Mixed MW turbo program for 7 min. • Membranes were blocked for one hour on a rocker at room temperature. • Primary antibodies were incubated overnight at 4° C. on a rocker. • Membranes were washed 3×TBST, 5 min each. • Secondaries were added and incubated for one hour on a rocker at room temperature. • Membranes were washed 3×TBST, 5 min each and rinsed well with deionized H2O. Membranes were scanned using the Licor Odessey CLx and bands were quantified using Image Studio Lite Version 5.2 software.
PBMC results at 4 hours. The letter codes indicate the percentage of IRAK4 degraded after 4 hours: A (>50% degradation), B (>20-50% degradation) and C (<20% degradation)

Sequence of CRBN-DDB1 / GST-IRAK4 ternary complex (Q96SW2 whole entry, one chain of several): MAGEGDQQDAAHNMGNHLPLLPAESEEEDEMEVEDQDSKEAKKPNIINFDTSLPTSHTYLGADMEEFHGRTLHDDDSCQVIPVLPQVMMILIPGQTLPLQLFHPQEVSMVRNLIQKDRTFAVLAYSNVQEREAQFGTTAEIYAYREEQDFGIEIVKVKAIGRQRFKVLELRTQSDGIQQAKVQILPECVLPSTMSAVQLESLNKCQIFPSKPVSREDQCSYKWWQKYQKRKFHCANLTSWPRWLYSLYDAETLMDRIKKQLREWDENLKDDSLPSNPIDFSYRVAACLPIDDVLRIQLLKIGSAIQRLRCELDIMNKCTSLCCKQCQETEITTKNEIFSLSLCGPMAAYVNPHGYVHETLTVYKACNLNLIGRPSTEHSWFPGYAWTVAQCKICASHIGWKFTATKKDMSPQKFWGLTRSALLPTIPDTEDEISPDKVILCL
Sequence of CRBN-DDB1 / GST-IRAK4 ternary complex (Q16531 whole entry partner, one chain of several): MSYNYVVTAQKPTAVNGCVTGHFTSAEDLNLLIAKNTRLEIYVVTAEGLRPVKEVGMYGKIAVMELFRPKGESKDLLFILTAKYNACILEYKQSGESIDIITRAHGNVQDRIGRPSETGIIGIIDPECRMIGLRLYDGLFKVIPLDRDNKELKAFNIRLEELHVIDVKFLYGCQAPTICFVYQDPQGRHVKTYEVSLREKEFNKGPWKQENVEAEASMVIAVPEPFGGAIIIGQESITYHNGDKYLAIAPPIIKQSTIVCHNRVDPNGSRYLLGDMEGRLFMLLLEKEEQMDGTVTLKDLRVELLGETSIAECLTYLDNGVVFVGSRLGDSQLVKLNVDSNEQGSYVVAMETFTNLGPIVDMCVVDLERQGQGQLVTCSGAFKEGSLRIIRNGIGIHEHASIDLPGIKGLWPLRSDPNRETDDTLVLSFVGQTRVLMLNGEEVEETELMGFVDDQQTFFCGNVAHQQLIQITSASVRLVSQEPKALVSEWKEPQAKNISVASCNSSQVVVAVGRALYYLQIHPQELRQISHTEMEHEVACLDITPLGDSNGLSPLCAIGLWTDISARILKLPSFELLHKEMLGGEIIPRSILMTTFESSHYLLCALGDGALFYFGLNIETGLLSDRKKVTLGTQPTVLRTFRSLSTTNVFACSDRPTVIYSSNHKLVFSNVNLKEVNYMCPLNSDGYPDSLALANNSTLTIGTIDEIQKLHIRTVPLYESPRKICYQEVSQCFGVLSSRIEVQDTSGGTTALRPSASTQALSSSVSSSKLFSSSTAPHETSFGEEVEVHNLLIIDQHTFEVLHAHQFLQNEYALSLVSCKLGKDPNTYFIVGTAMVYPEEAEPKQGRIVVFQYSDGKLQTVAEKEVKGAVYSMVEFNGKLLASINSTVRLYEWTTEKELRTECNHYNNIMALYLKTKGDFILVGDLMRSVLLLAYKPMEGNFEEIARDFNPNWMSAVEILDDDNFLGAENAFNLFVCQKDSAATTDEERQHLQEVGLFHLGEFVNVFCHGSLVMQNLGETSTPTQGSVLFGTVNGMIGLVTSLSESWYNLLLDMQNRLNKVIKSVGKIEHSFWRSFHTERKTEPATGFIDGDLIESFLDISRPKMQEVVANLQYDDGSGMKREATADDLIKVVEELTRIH

NC(=O)c1nn(-c2cccc(C(=O)NCCOCCOCCNc3cccc4c3C(=O)N(C3CCC(=O)NC3=O)C4=O)c2)cc1NC(=O)c1coc(-c2ccnc(NCC(F)(F)F)c2)n1 (stereo not shown) [I-135]
OCI-LY10 % IRAK4 Degradation (IRAK4 [1]): B (>20-50% degradation) | Average % Ternary Complex (N = 2) ([2]; compound concentration 1.00E−07 M): 4.16% | Average % Ternary Complex (N = 2) ([2]; compound concentration 1.25E−08 M): 0.76% | Average % Ternary Complex (N = 2) ([2]; compound concentration 1.28E−05 M): 0.61% | Average % Ternary Complex (N = 2) ([2]; compound concentration 1.60E−06 M): 0.67% | Average % Ternary Complex (N = 2) ([2]; compound concentration 2.00E−07 M): 6.15% | Average % Ternary Complex (N = 2) ([2]; compound concentration 2.50E−08 M): 1.05% | Average % Ternary Complex (N = 2) ([2]; compound concentration 3.20E−06 M): 0.57% | Average % Ternary Complex (N = 2) ([2]; compound concentration 4.00E−07 M): 4.22% | Average % Ternary Complex (N = 2) ([2]; compound concentration 5.00E−08 M): 2.54% | Average % Ternary Complex (N = 2) ([2]; compound concentration 6.25E−09 M): 0.55% | Average % Ternary Complex (N = 2) ([2]; compound concentration 6.40E−06 M): 0.5% | Average % Ternary Complex (N = 2) ([2]; compound concentration 8.00E−07 M): 1.25%

NC(=O)c1nn(-c2ccc(C(=O)NCCC#CC#CCCNc3cccc4c3C(=O)N(C3CCC(=O)NC3=O)C4=O)cc2)cc1NC(=O)c1coc(-c2ccnc(NCC(F)(F)F)c2)n1 (stereo not shown) [I-179, N-[3-carbamoyl-1-[4-[8-[[2-(2,6-dioxo-3-piperidyl)-1,3-dioxo-isoindolin-4-yl]amino]octa-3,5-diynylcarbamoyl]phenyl]pyrazol-4-yl]-2-[2-(2,2,2-trifluoroethylamino)-4-pyridyl]oxazole-4-carboxamide]
PBMC % IRAK4 Degradation (IRAK4 [3]): C (<20% degradation)

NC(=O)c1nn(-c2ccc(C(=O)NCc3cn(CCCNc4cccc5c4C(=O)N(C4CCC(=O)NC4=O)C5=O)nn3)cc2)cc1NC(=O)c1coc(-c2ccnc(NCC(F)(F)F)c2)n1 (stereo not shown) [I-180, N-[3-carbamoyl-1-[4-[[1-[3-[[2-(2,6-dioxo-3-piperidyl)-1,3-dioxo-isoindolin-4-yl]amino]propyl]triazol-4-yl]methylcarbamoyl]phenyl]pyrazol-4-yl]-2-[2-(2,2,2-trifluoroethylamino)-4-pyridyl]oxazole-4-carboxamide]
PBMC % IRAK4 Degradation (IRAK4 [3]): A (>50% degradation)

NC(=O)c1nn(-c2ccc(C(=O)NCCc3cn(CCCNc4cccc5c4C(=O)N(C4CCC(=O)NC4=O)C5=O)nn3)cc2)cc1NC(=O)c1coc(-c2ccnc(NCC(F)(F)F)c2)n1 (stereo not shown) [I-181, N-[3-carbamoyl-1-[4-[2-[1-[3-[[2-(2,6-dioxo-3-piperidyl)-1,3-dioxo-isoindolin-4-yl]amino]propyl]triazol-4-yl]ethylcarbamoyl]phenyl]pyrazol-4-yl]-2-[2-(2,2,2-trifluoroethylamino)-4-pyridyl]oxazole-4-carboxamide]
PBMC % IRAK4 Degradation (IRAK4 [3]): B (>20-50% degradation)

NC(=O)c1nn(-c2ccc(C(=O)NCCCn3cc(CNc4cccc5c4C(=O)N(C4CCC(=O)NC4=O)C5=O)nn3)cc2)cc1NC(=O)c1coc(-c2ccnc(NCC(F)(F)F)c2)n1 (stereo not shown) [I-183, N-[3-carbamoyl-1-[4-[3-[4-[[[2-(2,6-dioxo-3-piperidyl)-1,3-dioxo-isoindolin-4-yl]amino]methyl]triazol-1-yl]propylcarbamoyl]phenyl]pyrazol-4-yl]-2-[2-(2,2,2-trifluoroethylamino)-4-pyridyl]oxazole-4-carboxamide]
PBMC % IRAK4 Degradation (IRAK4 [3]): B (>20-50% degradation)

O=C1CCC(N2C(=O)c3cccc(NCCOCCOCCNCc4ccc(-n5cc(NC(=O)c6coc(-c7ccnc(NCC8CC8)c7)n6)c(C(F)(F)F)n5)cc4)c3C2=O)C(=O)N1 (stereo not shown) [I-185, 3-2-(2-((Cyclopropylmethyl)amino)pyridin-4-yl)-N-(1-(4-(((2-(2-(2-((2-(2,6-dioxopiperidin-3-yl)-1,3-dioxoisoindolin-4-yl)amino)ethoxy)ethoxy)ethyl)amino)methyl)phenyl)-3-(trifluoromethyl)-1H-pyrazol-4-yl)oxazole-4-carboxamide]
PBMC % IRAK4 Degradation (IRAK4 [3]): A (>50% degradation)

O=C1CCC(N2C(=O)c3cccc(NCCOCCOCCNCc4cccc(-n5cc(NC(=O)c6coc(-c7ccnc(NCC8CC8)c7)n6)c(C(F)(F)F)n5)c4)c3C2=O)C(=O)N1 (stereo not shown) [I-186, 2-[2-(Cyclopropylmethylamino)-4-pyridyl]-N-[1-[3-[[2-[2-[2-[[2-(2,6-dioxo-3-piperidyl)-1,3-dioxo-isoindolin-4-yl]amino]ethoxy]ethoxy]ethylamino]methyl]phenyl]-3-(trifluoromethyl)pyrazol-4-yl]oxazole-4-carboxamide]
PBMC % IRAK4 Degradation (IRAK4 [3]): C (<20% degradation)

Reference: patent publication US10874743B2, “IRAK degraders and uses thereof” (Kymera Therapeutics, Inc., priority 2017, dated 2020)
